Data from patent US20240368104A1, “Novel Dialkoxynaphtho[2,3-C]Furan-1(3H)-One Derivatives and Pharmaceutical Composition For Preventing or Treating Respiratory Disease or SARS-COV-2 Infection Disease, Comprising Same” (priority 2021, published 2024).
Read-outs that look alike come from different tables or passages of the source.

Tests used:
[1] = in vitro; details: African green monkey
[2] = system: SARS-COV-2; assay: microbe, parasite or virus in culture; assay type: cell-based; parameters: SI (Selectivity Index, CC50/IC50): unit not given here; details: for SI (Selectivity Index, CC50/IC50): SARS-COV-2, values >50 assumed to be 50; for IC50: read-out: SARS-COV-2 inhibition (IC50)
[3] = Severe acute respiratory syndrome coronavirus 2, Vero cells, 24 hours infection
[4] = Severe acute respiratory syndrome coronavirus 2, Vero, 24 h

Compound | CC50 [1] | SI (Selectivity Index, CC50/IC50) [2] | IC50 [2, 3] | IC50 [2, 4]
COc1cc2cc3c(c(-c4ccc(Cl)nc4)c2cc1OC)C(=O)OC3 [Example 185, 9-(6-chloropyridin-3-yl)-6,7-dimethoxynaphtho[2,3-c]furan-1(3H)-one] | > 50 µM | 149.26 | 0.33 µM | –
COc1cc2cc3c(c(-c4cnc(N(C)C5CCOCC5)nc4)c2cc1OC)C(=O)OC3 [Example 115, 6,7-dimethoxy-9-(2-(methyl(tetrahydro-2H-pyran-4-yl)amino)pyrimidin-5-yl)naphtho[2,3-c]furan-1(3H)-one] | > 50 µM | 48.62 | 1.03 µM | –
COc1cc2cc3c(c(-c4ccc(N5CCc6ccccc6C5)nc4)c2cc1OC)C(=O)OC3.Cl [Example 189, 9-(6-(3,4-dihydroisoquinolin-2 (1H)-yl)pyridin-3-yl)-6,7-dimethoxynaphtho[2,3-c]furan-1(3H)-one] | > 50 µM | 72.26 | – | 0.69 µM
COc1cc2cc3c(c(N4CCN(c5ccc(Br)cn5)CC4)c2cc1OC)C(=O)OC3 [Example 129, 9-(4-(5-bromopyridin-2-yl)piperazin-1-yl)-6,7-dimethoxynaphtho[2,3-c]furan-1(3H)-one] | > 50 µM | 2.29 | 21.8 µM | –
COc1cc2cc3c(c(-c4ccc(N(C)c5ccc(N(C)C(C)=O)cc5)nc4)c2cc1OC)C(=O)OC3.Cl [Example 236, N-(4-((5-(6,7-dimethoxy-3-oxo-1,3-dihydronaphtho[2,3-c]furan-4-yl)pyridin-2-yl)(methyl)amino)phenyl)-N-methylacetamide] | > 50 µM | 30.25 | – | 1.65 µM
COc1cc2cc3c(c(-c4cnc(N5CCOCC5)nc4)c2cc1OC)C(=O)OC3 [Example 51, 6,7-dimethoxy-9-(2-morpholinopyrimidin-5-yl)naphtho[2,3-c]furan-1(3H)-one] | > 50 µM | 34.12 | 1.47 µM | –
CCN(CCOC)c1ccc(-c2c3c(cc4cc(OC)c(OC)cc24)COC3=O)cc1 [Example 253, 9-(4-(ethyl(2-methoxyethyl)amino)phenyl)-6,7-dimethoxynaphtho[2,3-c]furan-1(3H)-one] | > 50 µM | 20.54 | 2.43 µM | –
CCN(CC)CCNc1ncc(-c2c3c(cc4cc(OC)c(OC)cc24)COC3=O)cn1 [Example 58, 9-(2-((2-(diethylamino)ethyl)amino)pyrimidin-5-yl)-6,7-dimethoxynaphtho[2,3-c]furan-1(3H)-one] | > 50 µM | 1.66 | 30.1 µM | –
COc1cc2cc3c(c(-c4cnc(N(C)C5CCCCC5)nc4)c2cc1OC)C(=O)OC3.Cl [Example 79, 9-(2-(cyclohexyl(methyl)amino)pyrimidin-5-yl)-6,7-dimethoxynaphtho[2,3-c]furan-1(3H)-one hydrochloride] | > 50 µM | 46.19 | – | 1.08 µM
CCC(C)CNc1ncc(-c2c3c(cc4cc(OC)c(OC)cc24)COC3=O)cn1 (stereo not drawn) [Example 64, 6,7-dimethoxy-9-(2-((2-methylbutyl)amino)pyrimidin-5-yl)naphtho[2,3-c]furan-1(3H)-one] | > 50 µM | 1.00 | > 50 µM | –
COc1cc2cc3c(c(-c4cncc(OCCN(C)C)c4)c2cc1OC)C(=O)OC3.Cl [Example 187, 9-(5-(2-(dimethylamino)ethoxy)pyridin-3-yl)-6,7-dimethoxynaphtho[2,3-c]furan-1(3H)-one] | > 50 µM | 1.0 | – | > 50 µM
COc1cc2c(OC)c3c(c(-c4ccc5c(c4)OCO5)c2cc1OC)COC3=O [Example 262, 4-(benzo[d][1,3]dioxol-5-yl)-6,7,9-trimethoxynaphtho[2,3-c]furan-1(3H)-one] | > 50 µM | 5.40 | – | 9.26 µM
COc1ccc2nc(C)cc(-c3c4c(cc5cc(OC)c(OC)cc35)COC4=O)c2c1 [Example 155, 6,7-dimethoxy-9-(6-methoxy-2-methylquinolin-4-yl)naphtho[2,3-c]furan-1(3H)-one] | > 50 µM | 1.0 | > 50 µM | –
COc1cc2cc3c(c(-c4ccc(N5CCc6sccc6C5)nc4)c2cc1OC)C(=O)OC3 [Example 156, 9-(6-(6,7-dihydrothien[3,2-c]pyridin-5 (4H)-yl)pyridin-3-yl)-6,7-dimethoxynaphtho[2,3-c]furan-1(3H)-one] | > 50 µM | 48.93 | 1.02 µM | –
COc1cc2cc3c(c(-c4ccc(N5C[C@@H](C)O[C@@H](C)C5)nc4)c2cc1OC)C(=O)OC3 [Example 121, 9-(6-((2S,6R)-2,6-dimethylmorpholino)pyridin-3-yl)-6,7-dimethoxynaphtho[2,3-c]furan-1(3H)-one] | > 50 µM | 21.51 | 2.32 µM | –
COc1cc2cc3c(c(-c4cc5c(cc4OC(=O)[C@@H]4CCCN4)OCO5)c2cc1OC)C(=O)OC3 [Example 273, 6-(6,7-dimethoxy-3-oxo-1,3-dihydronaphtho[2,3-c]furan-4-yl)benzo[d][1,3]dioxol-5-yl L-prolinate] | > 50 µM | 36.52 | 1.37 µM | –
COc1cc2cc3c(c(-c4ccc(N5CCC(C)CC5)nc4)c2cc1OC)C(=O)OC3 [Example 159, 6,7-dimethoxy-9-(6-(4-methylpiperidin-1-yl)pyridin-3-yl)naphtho[2,3-c]furan-1(3H)-one] | > 50 µM | 32.86 | 1.52 µM | –
COc1cc2cc3c(c(-c4ccc(N5CC(C)CC(C)C5)nc4)c2cc1OC)C(=O)OC3 (stereo not drawn) [Example 127, 9-(6-(3,5-dimethylpiperidin-1-yl)pyridin-3-yl)-6,7-dimethoxynaphtho[2,3-c]furan-1(3H)-one] | > 50 µM | 45.29 | 1.1 µM | –
COc1cc2cc3c(c(-c4cc5c(cc4OC(=O)C(C)C)OCO5)c2cc1OC)C(=O)OC3 [Example 275, 6-(6,7-dimethoxy-3-oxo-1,3-dihydronaphtho[2,3-c]furan-4-yl)benzo[d][1,3]dioxol-5-yl isobutrate] | > 50 µM | 1.76 | 28.4 µM | –
COc1cc2cc3c(c(-c4ccc(-c5c(OC)ncnc5OC)cc4)c2cc1OC)C(=O)OC3 [Example 157, 9-(4-(4,6-dimethoxypyrimidin-5-yl)phenyl)-6,7-dimethoxynaphtho[2,3-c]furan-1(3H)-one] | > 50 µM | 1.0 | > 50 µM | –
CCN(Cc1cccnc1)c1ccc(-c2c3c(cc4cc(OC)c(OC)cc24)COC3=O)cc1 [Example 254, 9-(4-(ethyl(pyridin-3-ylmethyl)amino)phenyl)-6,7-dimethoxynaphtho[2,3-c]furan-1(3H)-one] | > 50 µM | 12.17 | 4.11 µM | –
COc1cc2cc3c(c(-c4cc5c(cc4OC(=O)OC4CCCCC4)OCO5)c2cc1OC)C(=O)OC3 [Example 99, cyclohexyl (6-(6,7-dimethoxy-3-oxo-1,3-dihydronaphtho[2,3-c]furan-4-yl)benzo[d][1,3]dioxol-5-yl)carbonate] | > 50 µM | 8.70 | 5.75 µM | –
COc1cc2c(OC)c3c(c(-c4ccc(N5CCOCC5)nc4)c2cc1OC)COC3=O [Example 267, 6,7,9-trimethoxy-4-(6-morpholinopyridin-3-yl)naphtho[2,3-c]furan-1(3H)-one] | > 50 µM | 1.00 | > 50 µM | –
CCN(c1ccc(-c2c3c(cc4cc(OC)c(OC)cc24)COC3=O)cn1)C(C)C [Example 182, 9-(6-(ethyl(isopropyl)amino)pyridin-3-yl)-6,7-dimethoxynaphtho[2,3-c]furan-1(3H)-one] | > 50 µM | 75.67 | 0.66 µM | –
COc1cc2cc3c(c(-c4ccc5c(c4)N(C)CCC5)c2cc1OC)C(=O)OC3 [Example 170, 6,7-dimethoxy-9-(1-methyl-1,2,3,4-tetrahydroquinolin-7-yl)naphtho[2,3-c]furan-1(3H)-one] | > 50 µM | 24.25 | 2.06 µM | –
COc1cc2cc3c(c(-c4ccc(N(C)Cc5ccccc5C(F)(F)F)nc4)c2cc1OC)C(=O)OC3 [Example 208, 6,7-dimethoxy-9-(6-(methyl(2-(trifluoromethyl)benzyl)amino)pyridin-3-yl)naphtho[2,3-c]furan-1(3H)-one] | > 50 µM | 18.96 | 2.64 µM | –
COc1cc2cc3c(c(-c4ccc(N5CCN(C)CC5)nc4)c2cc1OC)C(=O)OC3 [Example 167, 6,7-dimethoxy-9-(6-(4-methylpiperazin-1-yl)pyridin-3-yl)naphtho[2,3-c]furan-1(3H)-one] | > 50 µM | 3.73 | 14.8 µM | –
COc1cc2cc3c(c(-c4ccc(N(C)c5nn(C)cc5C#N)nc4)c2cc1OC)C(=O)OC3.Cl [Example 241, 3-((5-(6,7-dimethoxy-3-oxo-1,3-dihydronaphtho[2,3-c]furan-4-yl)pyridin-2-yl)(methyl)amino)-1-methyl-1H-pyrazol-4-carbonitrile] | > 50 µM | 1.00 | – | > 50 µM
COc1cc2cc3c(c(-c4ccc(N5CCCCC5)nc4)c2cc1OC)C(=O)OC3 [Example 123, 6,7-dimethoxy-9-(6-(piperidin-1-yl)pyridin-3-yl)naphtho[2,3-c]furan-1(3H)-one] | > 50 µM | 145.26 | 0.34 µM | –
COc1cc2cc3c(c(N4CC(C)CC(C)C4)c2cc1OC)C(=O)OC3 (stereo not drawn) [Example 4, 9-(3,5-dimethylpiperidin-1-yl)-6,7-dimethoxynaphtho[2,3-c]furan-1(3H)-one] | > 50 µM | 4.45 | 11.2 µM | –
